Source: patent US12043600B2, “Microbiocidal compounds” (SYNGENTA CROP PROTECTION AG, priority 2018, dated 2024)
Read-outs that look alike come from different tables or passages of the source.

Experiments:
[1] = tested on: Monographella nivalis (Microdochium nivale); assay: Monographella nivalis (Microdochium nivale)/Liquid Culture (Foot Rot Cereals); format: cell-based; conditions: liquid culture, compared to untreated control
Description: (§1) Conidia of the fungus from cryogenic storage are directly mixed into nutrient broth (PDB potato dextrose broth). After placing a (DMSO) solution of test compound into a microtiter plate (96-well format), the nutrient broth containing the fungal spores is added.

[2] = tested on: Mycosphaerella graminicola (Septoria tritici); assay: Mycosphaerella graminicola (Septoria tritici)/Liquid Culture (Septoria Blotch); format: cell-based; conditions: Zymoseptoria tritici; for inhibition of growth at 20 ppm: liquid culture, compared to untreated control
Description: Conidia of the fungus from cryogenic storage are directly mixed into nutrient broth (PDB potato dextrose broth). After placing a (DMSO) solution of test compound into a microtiter plate (96-well format), the nutrient broth containing the fungal spores is added. […] The data are presented as the percentage of disease control of each compound for the biological tests against G. lagenarium (Example B3), P. recondita preventative (Example B13), P. teres (Example B15) and M. graminicola (Example B19) as described above. The testing rates of each biological test is specifically described in table C1 below.

[3] = tested on: Mycosphaerella arachidis (Cercospora arachidicola); assay: Mycosphaerella arachidis (Cercospora arachidicola)/Liquid Culture (Early Leaf Spot); format: cell-based; conditions: liquid culture, compared to untreated control
Description: as §1

[4] = tested on: Magnaporthe grisea (Pyricularia oryzae); assay: whole plant or invertebrate; format: in vivo; conditions: foliar, read-out: control of Magnaporthe grisea
[5] = tested on: Blumeria graminis f. sp. tritici (Erysiphe graminis f. sp. tritici); assay: Blumeria graminis f. sp. tritici/Wheat/Leaf Disc Preventative (Powdery Mildew on Wheat); format: in vivo; conditions: foliar, wheat leaf disc preventative, compared to untreated control
Description: Wheat leaf segments cv. Kanzler are placed on agar in a multiwell plate (24-well format) and sprayed with the formulated test compound diluted in water. The leaf disks are inoculated by shaking powdery mildew infected plants above the test plates 1 day after application. The inoculated leaf disks are incubated at 20° C. and 60% rh under a light regime of 24 h darkness followed by 12 h light/12 h darkness in a climate chamber and the activity of a compound is assessed as percent disease control compared to untreated when an appropriate level of disease damage appears on untreated check leaf segments (6-8 days after application).

[6] = tested on: Phytophthora infestans; assay: whole plant or invertebrate; format: in vivo; conditions: in Solanum lycopersicum, foliar, read-out: control of Phytophthora infestans
[7] = tested on: Puccinia recondita f. sp. tritici; assay: Puccinia recondita f. sp. tritici/Wheat/Leaf Disc Preventative (Brown Rust); format: in vivo; conditions: foliar; for pest or weed control at 200 ppm: wheat leaf disc preventative, compared to untreated control, read-out: control of Puccinia recondita f. sp. tritici
[8] = tested on: Phakopsora pachyrhizi; assay: Phakopsora pachyrhizi/Soybean/Preventative (Soybean Rust); format: in vivo; conditions: 288 h
[9] = tested on: Plasmopara viticola; assay: whole plant or invertebrate; format: in vivo; conditions: foliar, read-out: control of Plasmopara viticola
[10] = tested on: Phaeosphaeria nodorum (Septoria nodorum); assay: Phaeosphaeria nodorum (Septoria nodorum)/Wheat/Leaf Disc Preventative (Glume Blotch); format: in vivo; conditions: Parastagonospora nodorum, foliar, wheat leaf disc preventative, compared to untreated control
Description: Wheat leaf segments cv. Kanzler are placed on agar in a multiwell plate (24-well format) and sprayed with the formulated test compound diluted in water. The leaf disks are inoculated with a spore suspension of the fungus 2 days after application. The inoculated test leaf disks are incubated at 20° C. and 75% rh under a light regime of 12 h light/12 h darkness in a climate cabinet and the activity of a compound is assessed as percent disease control compared to untreated when an appropriate level of disease damage appears in untreated check leaf disks (5-7 days after application).

[11] = tested on: Glomerella lagenarium (Colletotrichum lagenarium); assay: Glomerella lagenarium (Colletotrichum lagenarium)/Liquid Culture (Anthracnose); format: cell-based; conditions: Colletotrichum orbiculare, liquid culture, compared to untreated control
[12] = foliar, soybean leaf disc preventative, compared to untreated control, read-out: control of Phakopsora pachyrhizi
[13] = Phakopsora pachyrhizi (Soybean rust)
[14] = Phakopsora pachyrhizi (Soybean rust), read-out: control (%)

Structure (SMILES) | inhibition of growth at 20 ppm [1] | inhibition of growth at 20 ppm [2] | inhibition of growth at 20 ppm [3] | melting point | pest or weed control at 200 ppm [5] | pest or weed control at 200 ppm [6] | pest or weed control at 200 ppm [7] | pest or weed control at 200 ppm [9] | pest or weed control at 200 ppm [10] | also measured
CO/C=C(\Oc1cc(-n2cc(Br)c(C3CCCCC3)n2)ccc1C)C(=O)OC [Compound E-10, methyl (Z)-2-[5-(4-bromo-3-cyclohexyl-pyrazol-1-yl)-2-methyl-phenoxy]-3-methoxy-prop-2-enoate] | ≥ 80% | ≥ 80% | ≥ 80% | 120 to 126 °C |  |  |  |  |  | pest or weed control at 200 ppm [4]: ≥ 80%
CO/C=C(\Oc1cc(-n2ccc(C(F)(F)F)n2)cc(OC)c1C)C(=O)OC [Compound E-22, methyl (Z)-3-methoxy-2-[3-methoxy-2-methyl-5-[3-(trifluoromethyl)pyrazol-1-yl]phenoxy]prop-2-enoate] | ≥ 80% | ≥ 80% | ≥ 80% | 153 to 156 °C | ≥ 80% | ≥ 80% | ≥ 80% |  |  | 
CO/C=C(\Oc1cc(-n2ccc(C(F)(F)F)n2)cc(F)c1C)C(=O)OC [Compound E-3, methyl (Z)-2-[3-fluoro-2-methyl-5-[3-(trifluoromethyl)pyrazol-1-yl]phenoxy]-3-methoxy-prop-2-enoate] | ≥ 80% | ≥ 80% | ≥ 80% | 133 to 135 °C | ≥ 80% | ≥ 80% | ≥ 80% | ≥ 80% | ≥ 80% | pest or weed control at 200 ppm [8, 12]: ≥ 50%
CO/C=C(\Oc1cccc(-n2ccc(C)n2)c1)C(=O)OC [Compound E-9, methyl (Z)-3-methoxy-2-[3-(3-methylpyrazol-1-yl)phenoxy]prop-2-enoate] | ≥ 80% | ≥ 80% | ≥ 80% |  |  |  |  |  |  | 
CO/C=C(\Oc1cc(-n2ccc(C)n2)ccc1C1CC1)C(=O)OC [Compound E-106, methyl (Z)-2-[2-cyclopropyl-5-(3-methylpyrazol-1-yl)phenoxy]-3-methoxy-prop-2-enoate] |  |  |  | 189 to 191 °C |  |  | ≥ 80% | ≥ 80% |  | 
CO/C=C(\Oc1cc(-n2cccc2)ccc1C)C(=O)OC [Compound X-2, reference compound] |  |  |  |  |  |  |  |  |  | pest or weed control at 0.6 ppm [8, 13]: 0%; pest or weed control at 2 ppm [8, 13]: 0%; pest or weed control at 6 ppm [8, 13]: 0%; pest or weed control at 20 ppm [8, 13]: 0%; pest or weed control at 60 ppm [8, 13]: 70%; pest or weed control at 200 ppm [8, 14]: 100%
CO/C=C(\Oc1cc(-c2cccc(C(F)(F)F)n2)ccc1C)C(=O)OC [Compound X-3, reference compound] |  |  |  |  |  |  |  |  |  | pest or weed control at 0.6 ppm [8, 13]: 0%; pest or weed control at 2 ppm [8, 13]: 0%; pest or weed control at 6 ppm [8, 13]: 0%; pest or weed control at 20 ppm [8, 13]: 10%; pest or weed control at 60 ppm [8, 13]: 50%; pest or weed control at 200 ppm [8, 14]: 85%
CCCOc1ccn(-c2ccc(C)c(O/C(=C\OC)C(=O)OC)c2)n1 [Compound E-13, methyl (Z)-3-methoxy-2-[2-methyl-5-(3-propoxypyrazol-1-yl)phenoxy]prop-2-enoate] |  |  |  | 85 to 87 °C |  |  |  |  |  | 
CO/C=C(\Oc1cccc(-n2ccc(C3CC3)n2)c1)C(=O)OC [Compound E-14, methyl (Z)-2-[3-(3-cyclopropylpyrazol-1-yl)phenoxy]-3-methoxy-prop-2-enoate] | ≥ 80% | ≥ 80% | ≥ 80% |  |  |  |  |  |  | inhibition of growth at 20 ppm [11]: ≥ 80%
CO/C=C(\Oc1cc(-n2ncc(C(F)(F)F)n2)ccc1C)C(=O)OC [Compound F-6, methyl (Z)-3-methoxy-2-[2-methyl-5-[4-(trifluoromethyl)triazol-2-yl]phenoxy]prop-2-enoate] | ≥ 80% | ≥ 80% | ≥ 80% | 107 to 109 °C | ≥ 80% | ≥ 80% |  | ≥ 80% | ≥ 80% | pest or weed control at 0.6 ppm [8, 13]: 0%; pest or weed control at 2 ppm [8, 13]: 0%; pest or weed control at 6 ppm [8, 13]: 20%; pest or weed control at 20 ppm [8, 13]: 80%; pest or weed control at 60 ppm [8, 13]: 100%; pest or weed control at 200 ppm [8, 14]: 100%; inhibition of growth at 20 ppm [11]: ≥ 80%; pest or weed control at 200 ppm [4]: ≥ 80%
CCc1ccc(-n2ccc(C)n2)cc1O/C(=C\OC)C(=O)OC [Compound E-107, methyl (Z)-2-[2-ethyl-5-(3-methylpyrazol-1-yl)phenoxy]-3-methoxy-prop-2-enoate] |  | ≥ 80% |  | 169 to 171 °C |  |  | ≥ 80% |  |  | 
CCC(CC)c1ccn(-c2ccc(C)c(O/C(=C\OC)C(=O)OC)c2)n1 [Compound E-4, methyl (Z)-2-[5-[3-(1-ethylpropyl)pyrazol-1-yl]-2-methyl-phenoxy]-3-methoxy-prop-2-enoate] | ≥ 80% | ≥ 80% | ≥ 80% | 108 to 111 °C | ≥ 80% | ≥ 80% | ≥ 80% |  | ≥ 80% | pest or weed control at 200 ppm [8, 12]: ≥ 50%
CO/C=C(\Oc1cc(-n2cc(Cl)c(Cl)n2)ccc1C)C(=O)OC [Compound E-111, methyl (Z)-2-[5-(3,4-dichloropyrazol-1-yl)-2-methyl-phenoxy]-3-methoxy-prop-2-enoate] | ≥ 80% |  | ≥ 80% | 140 to 144 °C | ≥ 80% |  |  | ≥ 80% | ≥ 80% | inhibition of growth at 20 ppm [11]: ≥ 80%
CCCc1ccn(-c2ccc(C)c(O/C(=C\OC)C(=O)OC)c2)n1 [drawing 151] |  |  |  |  |  |  |  |  |  | pest or weed control at 60 ppm ([7]; P. recondita prev (B13), 60 ppm, read-out: Disease control (%)): 70%; inhibition of growth at 6 ppm ([2]; M. graminicola (B19), 6 ppm, read-out: Disease control (%)): 100%
CO/C=C(\Oc1cc(-n2ccc(CSC)n2)ccc1C)C(=O)OC [Compound E-76, methyl (Z)-3-methoxy-2-[2-methyl-5-[3-(methylsulfanylmethyl)pyrazol-1-yl]phenoxy]prop-2-enoate] | ≥ 80% | ≥ 80% | ≥ 80% | 78 to 80 °C |  | ≥ 80% | ≥ 80% | ≥ 80% |  | pest or weed control at 200 ppm [4]: ≥ 80%
CO/C=C(\Oc1cc(-n2ccc(Br)n2)ccc1Br)C(=O)OC [Compound E-84, methyl (Z)-2-[2-bromo-5-(3-bromopyrazol-1-yl)phenoxy]-3-methoxy-prop-2-enoate] | ≥ 80% | ≥ 80% | ≥ 80% |  | ≥ 80% |  | ≥ 80% | ≥ 80% | ≥ 80% | pest or weed control at 200 ppm [8, 12]: ≥ 50%; inhibition of growth at 20 ppm [11]: ≥ 80%
